Source: patent US20020010210A1, “PHARMACEUTICAL PREPARATION AND METHOD FOR TREATING CANCER” (priority 1997, published 2002)
Where a name gives a salt, the structure may show the parent alone. Ends that are not written are not given here.

Experiments:
[1] = test system: bovine aortic endothelial BAE-2 cells; assay: Intracellular ascorbic acid cumulative amount in BAE-2 cells (Example 2); assay type: cell-based; settings: 5 μM in culturing medium, cultured 20 hours
Method: About 6×10^5 bovine aortic endothelial BAE-2 cells (available from Hiroshima Prefecture University) were sowed on a 60 mmφ plate and cultured in a minimum essential culturing medium containing 20% dialyzed bovine fetus serum (available from Moregate) for 2 hours. After displacing with the same culturing medium containing 5 μM (in the case of magnesium ascorbic acid-2-phosphate, 50 μM) of ascorbic acid or a derivative thereof, the cells were further cultured for 20 hours.

[2] = test system: spontaneous breast cancer rat cells (SST-2); assay: Lung metastasis of implanted SST-2 cells in SHR rats (Example 3); assay type: in vivo; settings: 35 days after implantation; for Number of Metastasis Colonies (average), Peroral Administration: 1 mg/rat perorally from day of implantation to day 34; for Number of Metastasis Colonies (average), Subcutaneous Injection: 1 mg/rat subcutaneous injection from day of implantation to day 34
Method: 1×100,000 spontaneous breast cancer rat cells (SST-2) were subcutaneously implanted into the back of a rat (SHR rat) (5 rats per group) suffering from spontaneous hypertension. After 35 days, the rats were sacrificed, and the lung weight and the number of colonies formed were measured to examine the degree of metastasis of SST-2 to the lung. The compounds shown in Tables 3 and 4 each was administered perorally or through subcutaneous injection in a dose of 1 mg/rat over the period from the day of implantation to 34 days after implantation. The number of colonies formed was compared with that in the control group not subjected to any treatment, to examine metastasis to the lung.

[3] = test system: normal human adult mamma epidermis keratinocyte; assay: Intracellular ascorbic acid cumulative amount in keratinocytes (Example 1); assay type: cell-based; settings: addition amount 2 μM, cultured 20 hours; difference to culture without addition
Method: About 6×10^5 cells of a normal human adult mamma epidermis keratinocyte (available from Kurashiki Boseki KK) were sowed on a 60 mm plate and cultured in a culturing medium (manufactured by Krashiki Boseki KK) for the increase of serum-free epidermis keratinocyte for 2 hours. After displacing with the same culturing medium having added thereto from 2 to 50 μM of ascorbic acid or a derivative thereof, the cells were further cultured for 20 hours. The cells were collected by trypsin treatment and the number of cells was counted using a Coulter Counter Model DN (trade name, manufactured by Coulter Electronics). The cells thus collected were washed with Hank's equilibrium salt solution, pulverized in an ultrasonic homgenizer, filtered through a Mol-cut II (UFP1LCC) (trade name, produced by Nippon Milipore KK), analyzed by HPLC using Shodex ODSpak F411A column (trade name, produced by Showa Denko KK), and the amount of ascorbic acid and derivatives thereof were measured to determine the intracellular cumulative amount.
As a control, culturing was performed in the same manner as above except for not adding ascorbic acid or a derivative thereof, and the amount of intracellular ascorbic acid was quantitatively determined.

[4] = test system: spontaneous breast cancer rat cells (SST-2); assay: Lung metastasis of SST-2 in SHR rats, ascorbic acid derivative combined with known anticancer agent (Example 4); assay type: in vivo
[5] = test system: spontaneous breast cancer rat cells (SST-2); assay: as above; assay type: in vivo; remark: listed apart in the source
Method: 1×100,000 spontaneous breast cancer rat cells (SST-2) were subcutaneously implanted into the back of a rat (SHR rat) (5 rats per group) suffering from spontaneous hypertension. After 35 days, the rats were sacrificed, and the number of colonies formed were measured to examine the degree of metastasis of SST-2 to the lung.
The ascorbic acid derivatives used were L-ascorbic acid-2-phosphate-6-palmitate, L-ascorbic acid-6-benzoate (reference compound) and magnesium L-ascorbic acid-2-phosphate.
Each of the groups treated with an ascorbic acid derivative was subjected to a test of administering the ascorbic acid derivative alone and to a test of administering the ascorbic acid derivative in combination with a known anticancer agent as shown in Table 4. Furthermore, tests of administering the anticancer agents alone were conducted. Over the period of from 7 days prior to implantation to 34 days after the implantation, the ascorbic acid derivative was injected through a vein in the tail region at a dose of 1 mg/1 day/rat. Each of the known anticancer agents was perorally administered in a minimum dose by reference to the concentration for a single use case described in the publication, Tyakuhin Yoran (Medical Product Handbook), 4th Edition, pp. 1474-1509, Yakugyo Jiho-Sha (1989), and the number of colonies formed after metastasis was compared.

[6] = ascorbic acid derivative 1 mg/1 day/rat tail vein, day -7 to day 34, known anticancer agent perorally in minimum dose, colonies after 35 days

Intracellular Cumulative Amount [1] [Pmole/cell] | Compound | Number of Metastasis Colonies (average), Peroral Administration [2] | Number of Metastasis Colonies (average), Subcutaneous Injection [2] | other results
0.0068 | CCCCC/C=C\C/C=C\C/C=C\C/C=C\CCCC(=O)OC[C@H](O)[C@H]1OC(=O)C(OP(=O)(O)O)=C1O [L-Ascorbic acid 2-phosphate-6-arachidonate] | 31.4 | 1.2 | 
 | O=C1O[C@H]([C@@H](O)CO)C(O)=C1O [L-Ascorbic acid] | 90.8 | 88.8 | 
 | O=C1O[C@H]([C@@H](O)CO)C(O)=C1OS(=O)(=O)[O-].[Na+] [Sodium L-ascorbic acid-2-sulfate] | 86.2 | 85.4 | 
0.0055 | CCCCCCCC/C=C\CCCCCCCC(=O)OC[C@H](O)[C@H]1OC(=O)C(OP(=O)(O)O)=C1O [L-Ascorbic acid 2-phosphate-6-oleate] | 29.4 | 2.8 | 
0.0025 | O=C1O[C@H]([C@@H](O)COC(=O)c2ccccc2)C(O)=C1OP(=O)(O)O [L-Ascorbic acid 2-phosphate-6-benzoate] | 80.0 | 64.4 | 
0.0072 | CCCCCCCCCCCCCCCC(=O)OC[C@H](O)[C@H]1OC(=O)C(OP(=O)(O)O)=C1O [L-Ascorbic acid 2-phosphate-6-palmitate] | 34.2 | 2.4 | 
0.0007 | O=C1OC(C2COC(c3cccc([N+](=O)[O-])c3)O2)C([O-])=C1O.[Na+] [Sodium 5,6-(3-nitro)benzylidene-L-ascorbate] | 88.6 | 84.2 | 
0.0070 | Magnesium L-ascorbic acid 2-phosphate-6-laurate |  |  | Intracellular Cumulative Amount [3]: 0.0033 Pmole/cell
 | CC(C)(C)C(=O)OC[C@H](O)[C@H]1OC(=O)C(O)=C1OP(=O)(O)O [6-O-Pivaloyl-L-ascorbic acid-3-phosphate] | 89.6 | 86.2 | 
0.0042 | CCCCCCCCCCCC(=O)OC[C@H](O)[C@H]1OC(=O)C(OP(=O)(O)O)=C1O [L-Ascorbic acid 2-phosphate-6-laurate] | 48.0 | 26.8 | 
0.0034 | CCCCCCCCCCCCCCCCCC(=O)OC[C@H](O)[C@H]1OC(=O)C(OP(=O)(O)O)=C1O [L-Ascorbic acid 2-phosphate-6-stearate] | 14.2 | 8.2 | 
0.0012 | O=C1O[C@H]([C@@H]2COC(c3ccccc3)O2)C(O)=C1O (stereo partly drawn) [L-Ascorbic acid-5,6-O-benzylidene] | 85.8 | 84.2 | 
 | CCCCCCCCCCCCCCCC(=O)OC[C@H](O)[C@H]1OC(=O)C(OC(=O)CCCCCCCCCCCCCCC)=C1O [L-Ascorbic acid-2,6-dipalmitate] | 89.8 | 86.6 | 
 | CCCCCCCCCCCCCCCC(=O)OC[C@H](O)[C@H]1OC(=O)C(O)=C1O [L-Ascorbic acid-6-palmitate] | 85.4 | 83.0 | 
 | O=C1O[C@H]([C@@H](O)CO)C(O)=C1OP(=O)([O-])[O-].[Mg+2] [Magnesium L-ascorbic acid-2-phosphate] | 89.4 | 86.8 | 
 | COc1cccc2c1C(=O)c1c(O)c3c(c(O)c1C2=O)C[C@@](O)(C(C)=O)C[C@@H]3O[C@H]1C[C@H](N)[C@H](O)[C@H](C)O1 [daunorubicin hydrochloride] |  |  | Cancer metastasis inhibitory effect of combination with L-Ascorbic Acid-2-Phosphate-6-Benzoate versus each agent alone ([4]; rat, in vivo): +; Cancer metastasis inhibitory effect of combination with L-Ascorbic Acid-6-Palmitate versus each agent alone ([4]; rat, in vivo): −; Cancer metastasis inhibitory effect of combination with L-Ascorbic Acid-2-Phosphate-6-Palmitate versus each agent alone ([5]; rat, in vivo): +
 | vebromycin sulfate |  |  | Cancer metastasis inhibitory effect of combination with L-Ascorbic Acid-2-Phosphate-6-Benzoate versus each agent alone ([4]; rat, in vivo): +; Cancer metastasis inhibitory effect of combination with L-Ascorbic Acid-6-Palmitate versus each agent alone ([4]; rat, in vivo): −; Cancer metastasis inhibitory effect of combination with L-Ascorbic Acid-2-Phosphate-6-Palmitate versus each agent alone ([5]; rat, in vivo): +
 | CC/C(=C(/CC)c1ccc(OP(=O)(O)O)cc1)c1ccc(OP(=O)(O)O)cc1 [HONPAN] |  |  | Cancer metastasis inhibitory effect of combination with L-Ascorbic Acid-2-Phosphate-6-Benzoate versus each agent alone [4, 6]: +; Cancer metastasis inhibitory effect of combination with L-Ascorbic Acid-6-Palmitate versus each agent alone [4, 6]: −; Cancer metastasis inhibitory effect of combination with L-Ascorbic Acid-2-Phosphate-6-Palmitate versus each agent alone [5, 6]: +
<0.0003 | O=C1O[C@H]([C@@H](O)CO)C(O)=C1OC1O[C@H](CO)[C@@H](O)[C@H](O)[C@H]1O (stereo partly drawn) [2-O-D-Glucopyranosil-L-ascorbic acid] | 87.2 | 90.6 | 
0.0068 | Sodium L-ascorbic acid 2-phosphate-6-palmitate | 30.6 | 1.6 | Intracellular Cumulative Amount [3]: 0.0040 Pmole/cell
 | CC/C(=C(\c1ccccc1)c1ccc(OCCN(C)C)cc1)c1ccccc1 [tamoxifen citrate] |  |  | Cancer metastasis inhibitory effect of combination with L-Ascorbic Acid-2-Phosphate-6-Benzoate versus each agent alone [4, 6]: +; Cancer metastasis inhibitory effect of combination with L-Ascorbic Acid-6-Palmitate versus each agent alone [4, 6]: −; Cancer metastasis inhibitory effect of combination with L-Ascorbic Acid-2-Phosphate-6-Palmitate versus each agent alone [5, 6]: +
 | protamine |  |  | Cancer metastasis inhibitory effect of combination with L-Ascorbic Acid-2-Phosphate-6-Benzoate versus each agent alone ([4]; rat, in vivo): +; Cancer metastasis inhibitory effect of combination with L-Ascorbic Acid-6-Palmitate versus each agent alone ([4]; rat, in vivo): −; Cancer metastasis inhibitory effect of combination with L-Ascorbic Acid-2-Phosphate-6-Palmitate versus each agent alone ([5]; rat, in vivo): +
 | CDPGYIGSR-NH2 [CDPGYGSR-NH2] |  |  | Cancer metastasis inhibitory effect of combination with L-Ascorbic Acid-2-Phosphate-6-Benzoate versus each agent alone ([4]; rat, in vivo): +; Cancer metastasis inhibitory effect of combination with L-Ascorbic Acid-6-Palmitate versus each agent alone ([4]; rat, in vivo): −; Cancer metastasis inhibitory effect of combination with L-Ascorbic Acid-2-Phosphate-6-Palmitate versus each agent alone ([5]; rat, in vivo): +
 | pleomycin hydrochloride |  |  | Cancer metastasis inhibitory effect of combination with L-Ascorbic Acid-2-Phosphate-6-Benzoate versus each agent alone ([4]; rat, in vivo): +; Cancer metastasis inhibitory effect of combination with L-Ascorbic Acid-6-Palmitate versus each agent alone ([4]; rat, in vivo): −; Cancer metastasis inhibitory effect of combination with L-Ascorbic Acid-2-Phosphate-6-Palmitate versus each agent alone ([5]; rat, in vivo): +

Compound | Intracellular Cumulative Amount [1] [Pmole/cell] | Number of Metastasis Colonies (average), Peroral Administration [2] | Number of Metastasis Colonies (average), Subcutaneous Injection [2] | other results
CC(CCC(C(=O)OC1=C(O)C(=O)O[C@@H]1[C@@H]1COC(c2ccccc2)O1)C(C)CC(C)(C)C)CC(C)(C)C (stereo partly drawn) [5,6-O-Benzylidene-3-O-[5,7,7-trimethyl-2-(1,3,3-timethylbutyl)]octanoylascorbic acid] | 0.0008 | 87.4 | 89.6 | 
